According to patent US20190105337A1, “METHODS OF TREATING BACTERIAL INFECTIONS” (priority 2015, published 2019):
Where “and” joins values, the source holds several entries; their conditions need not be identical. Identical values can stand only once. Like-named read-outs stand apart in the source and are kept apart here.

What was measured:
[1] = Example 1: pharmacokinetics of Compound I, single (SD) and multiple (MD, q8h 7 days) ascending doses, 3-hour IV infusion, healthy adult subjects; type: in vivo, human; conditions: for CL renal / AUC(0-t) / Cmax / Tmax / half-life / AUC(0-inf) / dose excreted: human, intravenous; for CL renal: plasma and urine; for AUC(0-t) / Cmax / Tmax / half-life / AUC(0-inf): plasma; for dose excreted: urine
Description: 56 healthy subjects were enrolled into one of 7 cohorts of 8 subjects each in the single ascending dose phase (250 mg, 500 mg, 750 mg, 1000 mg, 1250 mg, 1500 mg and 2000 mg). Thirty-two additional subjects were then enrolled into one of 4 cohorts in the multiple-dose phase (250 mg, 1000 mg, 1500 mg, and 2000 mg, given q8 h for 7 days). […] All infusions were administered over 3 hours. Plasma and urine samples were obtained after single or multiple doses and assayed for Compound I content using a validated HPLC/MS method.

[2] = Example 5: expected Compound I free drug 24 h AUC according to dosage regimen, by individual subject (Table B); parameters: species or system human; conditions: for Expected Compound I free drug 24 h AUC: individual subjects
Text: Table B provides a summary of the analysis of different Compound I dosing regimens by individual subjects enrolled the study.

[3] = 2 g q8h, Normal creatinine clearance

## O=C(O)C[C@@H]1CC[C@H](NC(=O)Cc2cccs2)B(O)O1 [Compound I]
[1]; 250 mg multiple dose
  CLNon-R: 2.49 L/h
[1]; 250 mg single dose
  CLNon-R: 2.85 L/h
  AUC(0-inf): 16.6 µg·h/mL
[1]; 500 mg single dose
  CLNon-R: 2.55 L/h
  AUC(0-inf): 35.6 µg·h/mL
[1]; 750 mg single dose
  CLNon-R: 1.72 L/h
  AUC(0-inf): 51.8 µg·h/mL
[1]; 1000 mg multiple dose
  CLNon-R: 2.31 L/h
[1]; 1000 mg single dose
  CLNon-R: 0.97 L/h
  AUC(0-inf): 79.3 µg·h/mL
[1]; 1250 mg single dose
  CLNon-R: 1.33 L/h
  AUC(0-inf): 100 µg·h/mL
[1]; 1500 mg multiple dose
  CLNon-R: 1.68 L/h
[1]; 1500 mg single dose
  CLNon-R: 1.42 L/h
  AUC(0-inf): 114 µg·h/mL
[1]; 2000 mg multiple dose
  CLNon-R: 1.15 L/h
[1]; 2000 mg single dose
  CLNon-R: -1.07 L/h
  AUC(0-inf): 144 µg·h/mL
[1]; following single and multiple doses
  exposure (Cmax and AUC) versus dose: increased in a dose-proportional manner
[1]; 250 mg, 250 mg multiple dose
  CL renal: 212 mL/min
  AUC(0-t): 16.3 µg·h/mL
  Cmax: 4810 ng/mL
  Tmax: 2.25 h
[1]; 250 mg, 250 mg single dose
  CL renal: 212 mL/min
  AUC(0-t): 16.2 µg·h/mL
  Cmax: 5030 ng/mL
  Tmax: 3.02 h
[1]; 500 mg, 500 mg single dose
  CL renal: 197 mL/min
  AUC(0-t): 34.5 µg·h/mL
  Cmax: 9970 ng/mL
  Tmax: 3 h
[1]; 750 mg, 750 mg single dose
  CL renal: 217 mL/min
  AUC(0-t): 50.6 µg·h/mL
  Cmax: 15300 ng/mL
  Tmax: 3 h
[1]; 1000 mg, 1000 mg multiple dose
  CL renal: 195 mL/min
  AUC(0-t): 74.6 µg·h/mL
  Cmax: 21300 ng/mL
  Tmax: 3 h
[1]; 1000 mg, 1000 mg single dose
  CL renal: 202 mL/min
  AUC(0-t): 76.7 µg·h/mL
  Cmax: 21800 ng/mL
  Tmax: 3.01 h
[1]; 1250 mg, 1250 mg single dose
  CL renal: 192 mL/min
  AUC(0-t): 97.2 µg·h/mL
  Cmax: 27800 ng/mL
  Tmax: 3 h
[1]; 1500 mg, 1500 mg multiple dose
  CL renal: 187 mL/min
  AUC(0-t): 118 µg·h/mL
  Cmax: 33400 ng/mL
  Tmax: 3 h
[1]; 1500 mg, 1500 mg single dose
  CL renal: 197 mL/min
  AUC(0-t): 110 µg·h/mL
  Cmax: 32900 ng/mL
  Tmax: 3.01 h
[1]; 2000 mg, 2000 mg multiple dose
  CL renal: 213 mL/min
  AUC(0-t): 145 µg·h/mL
  Cmax: 40900 ng/mL
  Tmax: 2.25 h
[1]; 2000 mg, 2000 mg single dose
  CL renal: 252 mL/min
  AUC(0-t): 140 µg·h/mL
  Cmax: 41600 ng/mL
  Tmax: 3.02 h
[1]; 250 mg, 250 mg multiple dose, read-out: T1/2 (converted)
  half-life: 1.17 h
[1]; 250 mg, 250 mg single dose, read-out: T1/2 (converted)
  half-life: 1.17 h
[1]; 500 mg, 500 mg single dose, read-out: T1/2 (converted)
  half-life: 1.35 h
[1]; 750 mg, 750 mg single dose, read-out: T1/2 (converted)
  half-life: 1.24 h
[1]; 1000 mg, 1000 mg multiple dose, read-out: T1/2 (converted)
  half-life: 1.43 h
[1]; 1000 mg, 1000 mg single dose, read-out: T1/2 (converted)
  half-life: 1.41 h
[1]; 1250 mg, 1250 mg single dose, read-out: T1/2 (converted)
  half-life: 1.32 h
[1]; 1500 mg, 1500 mg multiple dose, read-out: T1/2 (converted)
  half-life: 1.65 h
[1]; 1500 mg, 1500 mg single dose, read-out: T1/2 (converted)
  half-life: 1.4 h
[1]; 2000 mg, 2000 mg multiple dose, read-out: T1/2 (converted)
  half-life: 1.66 h
[1]; 2000 mg, 2000 mg single dose, read-out: T1/2 (converted)
  half-life: 1.51 h
[1]; observed, single and multiple doses, read-out: terminal half-life
  half-life: < 2 h
[1]; 250 mg, 250 mg multiple dose, read-out: Urinary Recovery
  dose excreted: 79.9%
[1]; 250 mg, 250 mg single dose, read-out: Urinary Recovery
  dose excreted: 81.3%
[1]; 500 mg, 500 mg single dose, read-out: Urinary Recovery
  dose excreted: 80.3%
[1]; 750 mg, 750 mg single dose, read-out: Urinary Recovery
  dose excreted: 86.4%
[1]; 1000 mg, 1000 mg multiple dose, read-out: Urinary Recovery
  dose excreted: 82.8%
[1]; 1000 mg, 1000 mg single dose, read-out: Urinary Recovery
  dose excreted: 89.9%
[1]; 1250 mg, 1250 mg single dose, read-out: Urinary Recovery
  dose excreted: 86.9%
[1]; 1500 mg, 1500 mg multiple dose, read-out: Urinary Recovery
  dose excreted: 86.8%
[1]; 1500 mg, 1500 mg single dose, read-out: Urinary Recovery
  dose excreted: 86.6%
[1]; 2000 mg, 2000 mg multiple dose, read-out: Urinary Recovery
  dose excreted: 91.6%
[1]; 2000 mg, 2000 mg single dose, read-out: Urinary Recovery
  dose excreted: 105%
[1]; over 48 hours across all dose groups, read-out: Urinary recovery
  dose excreted: ≥ 80%
[1]; q8h for 7 days
  accumulation with multiple doses: no evidence of accumulation
[2]; 500 mg q12h, 10-19 ml/min group
  Expected Compound I free drug 24 h AUC: 505.1 µg·h/mL and 427.3 µg·h/mL and 493.6 µg·h/mL and 790.7 µg·h/mL and 830.3 µg·h/mL and 719.6 µg·h/mL
[2]; 500 mg q12h, 30-49 ml/min group
  Expected Compound I free drug 24 h AUC: 119.3 µg·h/mL and 129.1 µg·h/mL and 115.2 µg·h/mL and 228.1 µg·h/mL and 251.1 µg·h/mL and 310.6 µg·h/mL
[2]; 500 mg q12h, >50 mL/min group
  Expected Compound I free drug 24 h AUC: 70.0 µg·h/mL and 62.7 µg·h/mL and 69.2 µg·h/mL and 88.4 µg·h/mL and 70.7 µg·h/mL and 68.1 µg·h/mL and 108.4 µg·h/mL and 108.0 µg·h/mL
[2]; 500 mg q24h, 10-19 ml/min group
  Expected Compound I free drug 24 h AUC: 252.5 µg·h/mL and 213.7 µg·h/mL and 246.8 µg·h/mL and 395.4 µg·h/mL and 415.1 µg·h/mL and 359.8 µg·h/mL
[2]; 500 mg q24h, 30-49 ml/min group
  Expected Compound I free drug 24 h AUC: 59.6 µg·h/mL and 64.5 µg·h/mL and 57.6 µg·h/mL and 114.0 µg·h/mL and 125.5 µg·h/mL and 155.3 µg·h/mL
[2]; 500 mg q24h, >50 mL/min group
  Expected Compound I free drug 24 h AUC: 35.0 µg·h/mL and 31.4 µg·h/mL and 34.6 µg·h/mL and 44.2 µg·h/mL and 35.4 µg·h/mL and 34.1 µg·h/mL and 54.2 µg·h/mL and 54.0 µg·h/mL
[2]; 1 g q8h, 10-19 ml/min group
  Expected Compound I free drug 24 h AUC: 1515.2 µg·h/mL and 1281.9 µg·h/mL and 1480.9 µg·h/mL and 2372.2 µg·h/mL and 2490.8 µg·h/mL and 2158.8 µg·h/mL
[2]; 1 g q8h, 30-49 ml/min group
  Expected Compound I free drug 24 h AUC: 357.8 µg·h/mL and 387.2 µg·h/mL and 345.5 µg·h/mL and 684.2 µg·h/mL and 753.3 µg·h/mL and 931.8 µg·h/mL
[2]; 1 g q8h, >50 mL/min group
  Expected Compound I free drug 24 h AUC: 210.0 µg·h/mL and 188.2 µg·h/mL and 207.5 µg·h/mL and 265.2 µg·h/mL and 212.1 µg·h/mL and 204.3 µg·h/mL and 325.3 µg·h/mL and 324.0 µg·h/mL
[2]; 1 g q24h, 10-19 ml/min group
  Expected Compound I free drug 24 h AUC: 505.1 µg·h/mL and 427.3 µg·h/mL and 493.6 µg·h/mL and 790.7 µg·h/mL and 830.3 µg·h/mL and 719.6 µg·h/mL
[2]; 1 g q24h, 30-49 ml/min group
  Expected Compound I free drug 24 h AUC: 119.3 µg·h/mL and 129.1 µg·h/mL and 115.2 µg·h/mL and 228.1 µg·h/mL and 251.1 µg·h/mL and 310.6 µg·h/mL
[2]; 1 g q24h, >50 mL/min group
  Expected Compound I free drug 24 h AUC: 70.0 µg·h/mL and 62.7 µg·h/mL and 69.2 µg·h/mL and 88.4 µg·h/mL and 70.7 µg·h/mL and 68.1 µg·h/mL and 108.4 µg·h/mL and 108.0 µg·h/mL
[2]; [3]
  Expected Compound I free drug 24 h AUC, Mean: 358 µg·h/mL
  Expected Compound I free drug 24 h AUC, Range: 284 to 470 µg·h/mL
[2]; 2 g q8h, 10-19 ml/min group
  Expected Compound I free drug 24 h AUC: 3030.3 µg·h/mL and 2563.8 µg·h/mL and 2961.8 µg·h/mL and 4744.3 µg·h/mL and 4981.6 µg·h/mL and 4317.6 µg·h/mL
[2]; 2 g q8h, 30-49 ml/min group
  Expected Compound I free drug 24 h AUC: 715.7 µg·h/mL and 774.5 µg·h/mL and 690.9 µg·h/mL and 1368.4 µg·h/mL and 1506.5 µg·h/mL and 1863.5 µg·h/mL
[2]; 2 g q8h, >50 mL/min group
  Expected Compound I free drug 24 h AUC: 420.0 µg·h/mL and 376.3 µg·h/mL and 415.0 µg·h/mL and 530.5 µg·h/mL and 424.2 µg·h/mL and 408.7 µg·h/mL and 650.6 µg·h/mL and 648.1 µg·h/mL
